Reference: patent US20220305003A1, “METHODS OF TREATING CANCER WITH AN INHIBITOR OF ZNF827” (CHILDREN'S MEDICAL RESEARCH INSTITUTE, priority 2019, published 2022)

Experiments:
U-2 OS cells [1] = experiment: Comet assay (tail moment); type: cell-based
Protocol: Comet assays were performed using the CometAssay® kit (Trevigen) according to the manufacturer's protocol with minor modifications. Briefly, cells were counted and resuspended in PBS. 20 μl of cells at 1×10^5/mL were combined with molten LMAgarose (Trevigen) at 37° C. The cell mixture was pipetted onto the sample area of a prewarmed slide (CometSlide™, Trevigen). Slides were cooled at 4° C. in the dark for 25 minutes, and then immersed in ice-cold lysis solution (CometAssay® kit, Trevigen) at 4° C. overnight. On the following day, slides were removed from lysis solution and gently immersed in ice-cold 1× neutral electrophoresis buffer ([…]) for 30 minutes. Slides were then electrophoresed in 1× neutral electrophoresis buffer ([…]) for 45 minutes at 1 V/cm. Following electrophoresis, slides were immersed in DNA precipitation solution (1 M ammonium acetate in 95% ethanol) for 30 minutes at room temperature. Slides were then transferred and immersed in 70% ethanol for 30 minutes at room temperature. Slides were then dried for 15 minutes at 37° C., incubated with 1 μM YOYO stain (Invitrogen) for 5 minutes, and Prolong Gold Antifade (Invitrogen) and stored at 4° C. until microscope analysis.

U-2 OS cells [2] = experiment: Sister chromatid exchange (SCE) assay in U-2 OS; type: cell-based; conditions: topotecan 2 μg/mL 1 hr
Protocol: For the SCE assay, 20-25% confluent cells were cultured in fresh media supplemented with 7.5 μM […] (BrdU) and 2.5 μM BrdC (BrdU:BrdC 3:1 ratio; Sigma-Aldrich) for 32-48 hours depending on the mitotic index of the cell line. Cell cultures were treated with 100 ng/mL colcemid for the last 4 hours of incubation to accumulate mitotic cells. Cells were harvested by trypsinisation and centrifugation, and then incubated in hypotonic buffer for 10 minutes at 37° C. Swollen cells were fixed by gradually adding 1 mL of fresh ice-cold fixative (methanol/acetic acid 3:1), mixing by inversion and incubating on ice for 5 minutes. Cells were then collected by centrifugation at 1200 rpm for 8 minutes. 10 mL ice cold fixative was added to resuspend the cells followed by 5 minutes incubation on ice and centrifugation at 1200 rpm for 8 minutes. This fixing step was repeated another two times. Fixed cells were then resuspended in 500-1000 μL of ice-cold fixative, and dropped onto clean, dry microscope slides (HDS Surefrost, 50-100 μL cell solution per slide). To drop chromosomes, a clean dry slide was held over a 75° C. water bath, and the cell solution was dropped from a pipette onto the slide, which was quickly flipped and held close to the surface of the water bath for 5 seconds. […]

Molecule: siZNF827: Stealth RNAi siRNA ZNF827HSS135819 duplex oligoribonucleotides (Invitrogen), SEQ ID NO: 12 and 13 (chain 1 GGGCAGUCUUCUGGCUGAGAAAUCA; chain 2 UGAUUUCUCAGCCAGAAGACUGCCC; listed as RNA, further chemistry not given here)
- DNA damage measured as tail moment (U-2 OS cells [1]; 72 hr siRNA knockdown alone (DMSO)): caused DNA damage measured as tail moment to a similar extent as topotecan treatment
- DNA damage measured as tail moment (U-2 OS cells [1]; 72 hr siRNA knockdown in conjunction with topotecan 2 μg/mL 24 hr): further increased the amount of DNA damage

Molecule: CC[C@@]1(O)C(=O)OCc2c1cc1n(c2=O)Cc2cc3c(CN(C)C)c(O)ccc3nc2-1 [topotecan]
- sister chromatid exchanges (SCEs) (U-2 OS cells [2]): drastic induction of SCEs
